Measured values: PubChem BioAssay AID2060894 (Molecular Pharmacology Branch, DTP, NCI, 2025)

System: K12877-001-R-J1-PDC complex spheroid viability
Assay: Anticancer human tumor K12877-001-R-J1-PDC patient-derived lung adenocarcinoma cell line growth inhibition [RAS]
Conditions: for IC50: curve of first compound; for viability, T/C: stronger effect = lower value
From the text: RAS pathway inhibitors in Combinations in Complex Spheroids
A high-throughput screen of multi-cell type tumor spheroids was designed to identify active combinations of RAS pathway inhibitors and targeted small molecules. Complex spheroids include a stromal component modeled by human endothelial cells (HUVEC) and fibroblasts modeled by human mesenchymal stem cells (MSCs). The concentration ranges selected for each drug and investigational agent were based upon clinically achievable concentrations if the clinical Cmax of the agent was known.
Compounds. The drugs and investigational agents: abemaciclib (NSC768073), cobimetinib (NSC768068), divarasib (GDC6063, NSC841802), docetaxel (NSC628503), GDC-1971 (RLY-1971, NSC841576), gemcitabine (NSC613327), inavolisib (NSC800729), ipatasertib (NSC767898), KB-0742 (NSC834161), MRTX-1133 (NSC836407), osimertinib (NSC779217), RMC-4630 (NSC839698), RMC-6236 (NSC851965), RMC-6291 (NSC852671), Ro-3306 (NSC812927), sapanisertib (NSC764658), SN-38 (NSC673596), staurosporine (NSC755774), SY5609 (NSC837396), and tovorafenib (DAY101, NSC766906), were obtained from the National Cancer Institute (NCI) Developmental Therapeutics Program Chemical Repository. The FDA-approved anticancer drug set is available from the NCI Developmental Therapeutics Program. […] The stock solutions were prepared in dimethyl sulfoxide (DMSO, Sigma-Aldrich, St. Louis, MO, cat. D2650) at 800-fold the tested concentration and stored at -70 degrees C prior to their use. All drugs and investigational agents were tested over a range starting from a high concentration at or near the clinical Cmax and decreasing in half-log increments. If the clinical Cmax for an agent had not been determined, the highest concentration tested was 10 microM.
Cell Culture. All cells were maintained in an incubator at 37 degrees C and 5% CO2 with 95% humidity. The PDC lines were cultured according to standard operating procedures established by the NCI PDMR. All PDCs were thawed and cultured in Matrigel-coated flasks prepared with a working solution of 1X Ham's F-12 nutrient mix, without supplementation (Invitrogen, Waltham, MA, cat. 11765054), 100 U/mL penicillin-streptomycin (Invitrogen, cat. 15140122), and 2.5% Matrigel (Corning Inc., Corning, NY, cat. 354248) for the first three passages. The 362531-283-R-J2-PDC and 782815-120-R-J1-PDC lines were cultured in 6C/Colon 1B media, which includes advanced DMEM/F-12 (Thermo Fisher Scientific, cat. 12634028), 10 mM HEPES (Thermo Fisher Scientific, cat. 15630080), 1X GlutaMAX supplement (Thermo Fisher Scientific, cat. 35050061), 0.1 mg/mL primocin (InvivoGen, San Diego, CA, cat. ant-pm-2), 10% defined fetal bovine serum, heat inactivated (HyClone Laboratories Inc., Logan, UT, cat. SH30070.03HI), 50% L-WRN conditioned media (ATCC, cat. CRL-3276), 1.25 mM N-Acetyl-L-cysteine (Sigma-Aldrich, cat. A9165), 10 mM nicotinamide (Sigma-Aldrich, cat. N0636), 1X B-27 supplement (Thermo Fisher Scientific, cat. 17504044), 1X N-2 supplement (Thermo Fisher Scientific, cat. 17502048), 50 ng/mL human EGF (Thermo Fisher Scientific, cat. PHG0311), and 10 microM Y-27632 dihydrochloride (Tocris Bioscience, cat. 1254). The K12877-001-R-J1-PDC line was cultured in 6I media, which includes all 6C/Colon 1B media plus 10 ng/mL human FGF-10 (PeproTech, cat. 100-26), 1 ng/mL human FGF-2 (PeproTech, cat. 100-18B), 1 µM prostaglandin E2 (Tocris Bioscience, cat. 2296), […] hydrocortisone (Sigma-Aldrich, cat. H4001), and […] bovine insulin (Sigma-Aldrich, cat. I6634). The K86415-001-R-J1-PDC line was cultured in 6D media, which includes all 6C/Colon 1B media components minus the L-WRN conditioned media. The 485176-168-R4-J1-PDC was cultured in PANC media, which includes all 6C/Colon 1B media plus 100 ng/mL human FGF-10 (PeproTech, cat. 100-26), 500 nM SB-431542 (Selleckchem, cat. S1067), and 10 nM gastrin (Tocris Bioscience, cat. 3006). […]
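Further: spheroids exposed to agents for one week before readout.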

Work on `CC(=O)OC12COC1CC(O)C1(C)C(=O)C(O)C3=C(C)C(OC(=O)C(O)C(NC(=O)OC(C)(C)C)c4ccccc4)CC(O)(C(OC(=O)c4ccccc4)C21)C3(C)C` (centres undefined) + C#Cc1c(F)ccc2cc(O)cc(-c3ncc4c(N5CC6CCC(C5)N6)nc(OCC56CCCN5CC(F)C6)nc4c3F)c12 yielded an IC50 (second compound 0.0316 µM) of less than 31.6 nM, an IC50 (second compound 0.1 µM) of less than 31.6 nM and an IC50 (second compound 0.316 µM) of less than 31.6 nM. It also gave an IC50 (second compound 1 µM) of less than 31.6 nM, an IC50 (second compound 3.16 µM) of less than 31.6 nM and an IC50 (second compound 10 µM) of less than 31.6 nM. The viability, T/C (second compound 0.0316 µM, first compound 0.0316 µM) was 8.75%, the viability, T/C (second compound 0.0316 µM, first compound 0.1 µM) was 6.43% and the viability, T/C (second compound 0.0316 µM, first compound 0.316 µM) was 6.63%. The viability, T/C (second compound 0.0316 µM, first compound 1 µM) was 5.48%, the viability, T/C (second compound 0.0316 µM, first compound 3.16 µM) was 7.34% and the viability, T/C (second compound 0.0316 µM, first compound 10 µM) was 14.9%. The viability, T/C (second compound 0.1 µM, first compound 0.0316 µM) was 8.48%, the viability, T/C (second compound 0.1 µM, first compound 0.1 µM) was 6.66% and the viability, T/C (second compound 0.1 µM, first compound 0.316 µM) was 4.24%. For the same compound, the viability, T/C (second compound 0.1 µM, first compound 1 µM) was 5.34%, the viability, T/C (second compound 0.1 µM, first compound 3.16 µM) was 6.17% and the viability, T/C (second compound 0.1 µM, first compound 10 µM) was 16%. The viability, T/C (second compound 0.316 µM, first compound 0.0316 µM) was 9.56%, the viability, T/C (second compound 0.316 µM, first compound 0.1 µM) was 6.37% and the viability, T/C (second compound 0.316 µM, first compound 0.316 µM) was 5.39%. The viability, T/C (second compound 0.316 µM, first compound 1 µM) was 5.34%, the viability, T/C (second compound 0.316 µM, first compound 3.16 µM) was 6.63% and the viability, T/C (second compound 0.316 µM, first compound 10 µM) was 17.3%. The viability, T/C (second compound 1 µM, first compound 0.0316 µM) was 8.81%, the viability, T/C (second compound 1 µM, first compound 0.1 µM) was 6.46% and the viability, T/C (second compound 1 µM, first compound 0.316 µM) was 6.04%. It also gave a viability, T/C (second compound 1 µM, first compound 1 µM) of 5.11%, a viability, T/C (second compound 1 µM, first compound 3.16 µM) of 7.06% and a viability, T/C (second compound 1 µM, first compound 10 µM) of 18.1%. It also gave a viability, T/C (second compound 3.16 µM, first compound 0.0316 µM) of 7.54%, a viability, T/C (second compound 3.16 µM, first compound 0.1 µM) of 5.83% and a viability, T/C (second compound 3.16 µM, first compound 0.316 µM) of 4.07%. It also gave a viability, T/C (second compound 3.16 µM, first compound 1 µM) of 4.99%, a viability, T/C (second compound 3.16 µM, first compound 3.16 µM) of 6.13% and a viability, T/C (second compound 3.16 µM, first compound 10 µM) of 15.7%. It also gave a viability, T/C (second compound 10 µM, first compound 0.0316 µM) of 5.58%, a viability, T/C (second compound 10 µM, first compound 0.1 µM) of 3.71% and a viability, T/C (second compound 10 µM, first compound 0.316 µM) of 4.04%. It also gave a viability, T/C (second compound 10 µM, first compound 1 µM) of 4.11%, a viability, T/C (second compound 10 µM, first compound 3.16 µM) of 5.73% and a viability, T/C (second compound 10 µM, first compound 10 µM) of 15.2%.
`CCc1c2c(nc3ccc(O)cc13)-c1cc3c(c(=O)n1C2)COC(=O)[C@]3(O)CC` + C#Cc1c(F)ccc2cc(O)cc(-c3ncc4c(N5CC6CCC(C5)N6)nc(OCC56CCCN5CC(F)C6)nc4c3F)c12 was tested, and the IC50 (second compound 0.0316 µM) was 4.79 nM, the IC50 (second compound 0.1 µM) was 5.39 nM and the IC50 (second compound 0.316 µM) was 5.3 nM. The IC50 (second compound 1 µM) was 5.51 nM, the IC50 (second compound 3.16 µM) was 5.35 nM and the IC50 (second compound 10 µM) was 4.74 nM. The viability, T/C (second compound 0.0316 µM, first compound 0.000949 µM) was 109%, the viability, T/C (second compound 0.0316 µM, first compound 0.003 µM) was 77.1% and the viability, T/C (second compound 0.0316 µM, first compound 0.00949 µM) was 10.3%. The viability, T/C (second compound 0.0316 µM, first compound 0.03 µM) was 4.77%, the viability, T/C (second compound 0.0316 µM, first compound 0.0949 µM) was 2.24% and the viability, T/C (second compound 0.0316 µM, first compound 0.3 µM) was 0.94%. For the same compound, the viability, T/C (second compound 0.1 µM, first compound 0.000949 µM) was 107%, the viability, T/C (second compound 0.1 µM, first compound 0.003 µM) was 89% and the viability, T/C (second compound 0.1 µM, first compound 0.00949 µM) was 12.3%. The viability, T/C (second compound 0.1 µM, first compound 0.03 µM) was 4.96%, the viability, T/C (second compound 0.1 µM, first compound 0.0949 µM) was 2.8% and the viability, T/C (second compound 0.1 µM, first compound 0.3 µM) was 1.27%. For the same compound, the viability, T/C (second compound 0.316 µM, first compound 0.000949 µM) was 89.3%, the viability, T/C (second compound 0.316 µM, first compound 0.003 µM) was 87.6% and the viability, T/C (second compound 0.316 µM, first compound 0.00949 µM) was 11.5%. It also gave a viability, T/C (second compound 0.316 µM, first compound 0.03 µM) of 4.86%, a viability, T/C (second compound 0.316 µM, first compound 0.0949 µM) of 2.49% and a viability, T/C (second compound 0.316 µM, first compound 0.3 µM) of 1.48%. It also gave a viability, T/C (second compound 1 µM, first compound 0.000949 µM) of 86.5%, a viability, T/C (second compound 1 µM, first compound 0.003 µM) of 99.4% and a viability, T/C (second compound 1 µM, first compound 0.00949 µM) of 11.7%. For the same compound, the viability, T/C (second compound 1 µM, first compound 0.03 µM) was 9.22%, the viability, T/C (second compound 1 µM, first compound 0.0949 µM) was 2.66% and the viability, T/C (second compound 1 µM, first compound 0.3 µM) was 1.23%. It also gave a viability, T/C (second compound 3.16 µM, first compound 0.000949 µM) of 95%, a viability, T/C (second compound 3.16 µM, first compound 0.003 µM) of 85.9% and a viability, T/C (second compound 3.16 µM, first compound 0.00949 µM) of 14.4%. It also gave a viability, T/C (second compound 3.16 µM, first compound 0.03 µM) of 7.59%, a viability, T/C (second compound 3.16 µM, first compound 0.0949 µM) of 3.16% and a viability, T/C (second compound 3.16 µM, first compound 0.3 µM) of 2.37%. The viability, T/C (second compound 10 µM, first compound 0.000949 µM) was 82.9%, the viability, T/C (second compound 10 µM, first compound 0.003 µM) was 75.4% and the viability, T/C (second compound 10 µM, first compound 0.00949 µM) was 11.4%. It also gave a viability, T/C (second compound 10 µM, first compound 0.03 µM) of 5.12%, a viability, T/C (second compound 10 µM, first compound 0.0949 µM) of 4.3% and a viability, T/C (second compound 10 µM, first compound 0.3 µM) of 1.89%.
